# Measured values from patent US8450317B2, “CXCR3 receptor antagonists” (Boehringer Ingelheim International GmbH, priority 2009, dated 2013).
# Target: CXCR3 (Macaca fascicularis, UniProt A0A2K5UV19)
# Assay: functional cellular assay measuring calcium flux in CXCR3 transfected cells (block of CXCR3/IP-10 interaction)
# Format: cell-based, Cyno
# Conditions: IP-10 induced intracellular calcium flux; Cyno-CHO cells stably expressing recombinant CXCR3 and G-alpha-16; IP-10 at EC80; read-out: IC50
# Outline: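 Inhibition of IP-10-induced calcium flux at 10 microM final compound, 15 min room-temperature preincubation, with IP-10 at EC80. Cells: CHO stably transfected with cynomolgus CXCR3 plus G-alpha-16, dye-loaded (Ca-4, 2 mM probenecid, HBSS/HEPES pH 7.4) 1 h at 37° C.; fluorescence ex 480/em 540 nm.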
# Sequence of CXCR3 (A0A2K5UV19 entry or part of it): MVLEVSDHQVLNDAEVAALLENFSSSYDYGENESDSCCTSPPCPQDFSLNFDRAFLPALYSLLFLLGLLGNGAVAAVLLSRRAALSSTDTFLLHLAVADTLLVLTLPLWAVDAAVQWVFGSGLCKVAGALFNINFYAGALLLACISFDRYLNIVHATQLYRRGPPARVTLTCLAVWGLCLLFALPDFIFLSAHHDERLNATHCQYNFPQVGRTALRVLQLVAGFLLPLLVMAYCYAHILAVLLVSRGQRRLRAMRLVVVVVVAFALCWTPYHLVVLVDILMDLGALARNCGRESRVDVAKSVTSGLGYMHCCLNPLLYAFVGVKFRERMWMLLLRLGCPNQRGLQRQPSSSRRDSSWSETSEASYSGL
row,Structure (SMILES),IC50
1,"O=C(Cn1ccc2ccncc21)N1CCN(c2ccc(F)cc2-c2cnc(N3CCC(O)CC3)nc2)CC1 [1-(4-{4-fluoro-2-[2-(4-hydroxypiperidin-1-yl)pyrimidin-5-yl]phenyl}piperazin-1-yl)-2-(1H-pyrrolo[2,3-c]pyridin-1-yl)ethanone]",10 nM
2,"COc1cc(NC(=O)c2cc(F)ccc2N2CCN(C(=O)Cn3cnc4cccnc43)[C@H](C)C2)ccn1 [5-fluoro-2-[(3R)-4-(3H-imidazo[4,5-b]pyridin-3-ylacetyl)-3-methylpiperazin-1-yl]-N-(2-methoxypyridin-4-yl)benzamide]",7 nM
3,CS(=O)(=O)C1CCN(c2ncc(-c3cc(F)ccc3N3CCN(C(=O)CN4CCCCC4=O)CC3)cn2)CC1 [1-{2-[4-(4-fluoro-2-{2-[4-(methylsulfonyl)piperidin-1-yl]pyrimidin-5-yl}phenyl)piperazin-1-yl]-2-oxoethyl}piperidin-2-one],15 nM
4,"O=C(Cn1c(=O)[nH]c2ccccc21)N1CCN(c2ccc(F)cc2-c2cnc(N3CCC(O)CC3)nc2)CC1 [1-[2-(4-{4-fluoro-2-[2-(4-hydroxypiperidin-1-yl)pyrimidin-5-yl]phenyl}piperazin-1-yl)-2-oxoethyl]-1,3-dihydro-2H-benzimidazol-2-one]",8 nM
5,"Cc1ocnc1C(=O)N(C)CC(=O)N1CCN(c2ccc(F)cc2C(=O)Nc2nc3c(s2)CN(C)CC3)C[C@@H]1C [N-{2-[(2S)-4-{4-fluoro-2-[(5-methyl-4,5,6,7-tetrahydro[1,3]thiazolo[5,4-c]pyridin-2-yl)carbamoyl]phenyl}-2-methylpiperazin-1-yl]-2-oxoethyl}-N,5-dimethyl-1,3-oxazole-4-carboxamide]",21 nM
6,"C[C@@H]1CN(c2ccc(F)cc2C(=O)Nc2nc3c(s2)CN(C)CC3)CCN1C(=O)CN1CCCCC1=O [5-fluoro-2-{(3R)-3-methyl-4-[(2-oxopiperidin-1-yl)acetyl]piperazin-1-yl}-N-(5-methyl-4,5,6,7-tetrahydro[1,3]thiazolo[5,4-c]pyridin-2-yl)benzamide]",20 nM
7,"COc1cc(NC(=O)c2cc(F)ccc2N2CCN(C(=O)Cn3nc(C)cc3C)[C@@H](C)C2)ccn1 [2-{(3S)-4-[(3,5-dimethyl-1H-pyrazol-1-yl)acetyl]-3-methylpiperazin-1-yl}-5-fluoro-N-(2-methoxypyridin-4-yl)benzamide]",12 nM
8,"O=C(Cn1ccc2cccnc21)N1CCC(c2ccccc2-c2cnc(N3CCOCC3)nc2)CC1 [1-{4-[2-(2-Morpholin-4-yl-pyrimidin-5-yl)-phenyl]-piperidin-1-yl}-2-pyrrolo[2,3-b]pyridin-1-yl-ethanone]",11 nM
9,CN1CCN(c2ncc(-c3cc(F)ccc3N3CCN(C(=O)CN4CCCCC4=O)CC3)cn2)CC1 [1-[2-(4-{4-fluoro-2-[2-(4-methylpiperazin-1-yl)pyrimidin-5-yl]phenyl}piperazin-1-yl)-2-oxoethyl]piperidin-2-one],94 nM
10,"C[C@@H]1CN(c2ccc(F)cc2C(=O)Nc2nc3c(s2)CN(C)CC3)CCN1C(=O)Cn1ccc2cccnc21 [5-fluoro-2-[(3R)-3-methyl-4-(1H-pyrrolo[2,3-b]pyridin-1-ylacetyl)piperazin-1-yl]-N-(5-methyl-4,5,6,7-tetrahydro[1,3]thiazolo[5,4-c]pyridin-2-yl)benzamide]",20 nM
11,"CC1CN(c2ccccc2-c2cnc(N3CCOCC3)nc2)CCN1C(=O)Cn1ccc2cccnc21 (stereo not shown) [1-{2-Methyl-4-[2-(2-morpholin-4-yl-pyrimidin-5-yl)-phenyl]-piperazin-1-yl}-2-pyrrolo[2,3-b]pyridin-1-yl-ethanone]",13 nM
12,"CN1CCN(c2ncc(-c3cc(F)ccc3N3CCN(C(=O)Cn4cnc5cccnc54)CC3)cn2)CC1 [1-(4-{4-fluoro-2-[2-(4-methylpiperazin-1-yl)pyrimidin-5-yl]phenyl}piperazin-1-yl)-2-(3H-imidazo[4,5-b]pyridin-3-yl)ethanone]",43 nM
13,"Cc1cc(C)n(CC(=O)N2CCN(c3ccccc3-c3cnc(N4CCC(N(C)C)CC4)nc3)CC2)n1 [1-(4-{2-[2-(4-Dimethylamino-piperidin-1-yl)-pyrimidin-5-yl]-phenyl}-piperazin-1-yl)-2-(3,5-dimethyl-pyrazol-1-yl)-ethanone]",31 nM
14,"COc1cc(NC(=O)c2cc(F)ccc2N2CCN(C(=O)CN(C)C(=O)c3ncoc3C)[C@H](C)C2)ccn1 [N-{2-[(2R)-4-{4-fluoro-2-[(2-methoxypyridin-4-yl)carbamoyl]phenyl}-2-methylpiperazin-1-yl]-2-oxoethyl}-N,5-dimethyl-1,3-oxazole-4-carboxamide]",12 nM
15,"O=C(CN1Cc2ccccc2C1=O)N1CCN(c2ccc(F)cc2-c2cnc(N3CCC(O)CC3)nc2)CC1 [2-[2-(4-{4-fluoro-2-[2-(4-hydroxypiperidin-1-yl)pyrimidin-5-yl]phenyl}piperazin-1-yl)-2-oxoethyl]-2,3-dihydro-1H-isoindol-1-one]",9 nM
16,"Cc1cc(C)n(CC(=O)N2CCN(c3ccccc3-c3ccc(C#N)cc3)CC2)n1 [2′-{4-[2-(3,5-Dimethyl-pyrazol-1-yl)-acetyl]-piperazin-1-yl}-biphenyl-4-carbonitrile]",100 nM

row,Structure (SMILES),IC50
1,"O=C(CN1Cc2ccccc2C1=O)N1CCN(c2ccc(F)cc2-c2cnc(N3CCOCC3)nc2)CC1 [2-[2-(4-{4-fluoro-2-[2-(morpholin-4-yl)pyrimidin-5-yl]phenyl}piperazin-1-yl)-2-oxoethyl]-2,3-dihydro-1H-isoindol-1-one]",23 nM
2,"O=C(Cn1ccc2cccnc21)N1CCN(c2ccccc2-c2cnc(N3CCCC3)nc2)CC1 [1-{4-[2-(2-Pyrrolidin-1-yl-pyrimidin-5-yl)-phenyl]-piperazin-1-yl}-2-pyrrolo[2,3-b]pyridin-1-yl-ethanone]",9 nM
3,"Cc1cc(C)n(CC(=O)N2CCN(c3ccccc3-c3cnc(N4C[C@@H]5C[C@H]4CO5)nc3)CC2)n1 [2-(3,5-Dimethyl-pyrazol-1-yl)-1-(4-{2-[(1S,4S)-2-(2-oxa-5-aza-bicyclo[2.2.1]hept-5-yl)-pyrimidin-5-yl]-phenyl}-piperazin-1-yl)-ethanone]",14 nM
4,"Cc1cc(C)n(CC(=O)N2CCN(c3ccc(F)cc3-c3cnc(N4CCC(S(C)(=O)=O)CC4)nc3)CC2)n1 [2-(3,5-dimethyl-1H-pyrazol-1-yl)-1-[4-(4-fluoro-2-{2-[4-(methylsulfonyl)piperidin-1-yl]pyrimidin-5-yl}phenyl)piperazin-1-yl]ethanone]",11 nM
5,"Cc1cc(C)n(CC(=O)N2CCN(c3ccc(C(F)(F)F)cc3-c3cnc(N4CCC(O)CC4)nc3)CC2C)n1 (stereo not shown) [2-(3,5-dimethyl-1H-pyrazol-1-yl)-1-(4-{2-[2-(4-hydroxypiperidin-1-yl)pyrimidin-5-yl]-4-(trifluoromethyl)phenyl}-2-methylpiperazin-1-yl)ethanone]",8 nM
6,"COc1cc(NC(=O)c2cc(F)ccc2N2CCN(C(=O)Cn3ccc4ccncc43)[C@@H](C)C2)ccn1 [5-fluoro-N-(2-methoxypyridin-4-yl)-2-[(3S)-3-methyl-4-(1H-pyrrolo[2,3-c]pyridin-1-ylacetyl)piperazin-1-yl]benzamide]",6 nM
7,"COc1cc(NC(=O)c2cc(F)ccc2N2CCN(C(=O)CN(C)C(=O)c3ncoc3C)[C@@H](C)C2)ccn1 [N-{2-[(2S)-4-{4-fluoro-2-[(2-methoxypyridin-4-yl)carbamoyl]phenyl}-2-methylpiperazin-1-yl]-2-oxoethyl}-N,5-dimethyl-1,3-oxazole-4-carboxamide]",11 nM
8,"CS(=O)(=O)C1CCN(c2ncc(-c3cc(F)ccc3N3CCN(C(=O)Cn4ccc5cccnc54)CC3)cn2)CC1 [1-[4-(4-fluoro-2-{2-[4-(methylsulfonyl)piperidin-1-yl]pyrimidin-5-yl}phenyl)piperazin-1-yl]-2-(1H-pyrrolo[2,3-b]pyridin-1-yl)ethanone]",9 nM
9,"CS(=O)(=O)c1ncc(-c2ccccc2N2CCN(C(=O)Cn3ccc4cccnc43)CC2)cn1 [1-{4-[2-(2-Methanesulfonyl-pyrimidin-5-yl)-phenyl]-piperazin-1-yl}-2-pyrrolo[2,3-b]pyridin-1-yl-ethanone]",115 nM
10,"Cc1cc(C)n(CC(=O)N2CCN(c3ccc(F)cc3C(=O)Nc3nc4c(s3)CN(C)CC4)C[C@@H]2C)n1 [2-{(3S)-4-[(3,5-dimethyl-1H-pyrazol-1-yl)acetyl]-3-methylpiperazin-1-yl}-5-fluoro-N-(5-methyl-4,5,6,7-tetrahydro[1,3]thiazolo[5,4-c]pyridin-2-yl)benzamide]",12 nM
11,"CSc1ncc(-c2cc(Cl)ccc2N2CCN(C(=O)Cn3ccc4cccnc43)CC2)cn1 [1-{4-[4-Chloro-2-(2-methylsulfanyl-pyrimidin-5-yl)-phenyl]-piperazin-1-yl}-2-pyrrolo[2,3-b]pyridin-1-yl-ethanone]",8 nM
12,"CC1CN(c2ccccc2-c2cnc(N3CCC(S(C)(=O)=O)CC3)nc2)CCN1C(=O)Cn1ccc2cccnc21 (stereo not shown) [1-[2-methyl-4-(2-{2-[4-(methylsulfonyl)piperidin-1-yl]pyrimidin-5-yl}phenyl)piperazin-1-yl]-2-(1H-pyrrolo[2,3-b]pyridin-1-yl)ethanone]",9 nM
13,CC1CN(c2ccc(C(F)(F)F)cc2-c2cnc(S(C)(=O)=O)nc2)CCN1C(=O)CN1CCCCC1=O (stereo not shown) [1-[2-(2-methyl-4-{2-[2-(methylsulfonyl)pyrimidin-5-yl]-4-(trifluoromethyl)phenyl}piperazin-1-yl)-2-oxoethyl]piperidin-2-one],310 nM
14,"Cc1cc(C)n(CC(=O)N2CCN(c3ccccc3-c3cnc(N4CCCOCC4)nc3)CC2)n1 [2-(3,5-Dimethyl-pyrazol-1-yl)-1-{4-[2-(2-[1,4]oxazepan-4-yl-pyrimidin-5-yl)-phenyl]-piperazin-1-yl}-ethanone]",11 nM
15,"O=C(Cn1c(=O)[nH]c2ccccc21)N1CCN(c2ccc(F)cc2-c2cnc(N3CCCC3)nc2)CC1 [1-[2-(4-{4-fluoro-2-[2-(pyrrolidin-1-yl)pyrimidin-5-yl]phenyl}piperazin-1-yl)-2-oxoethyl]-1,3-dihydro-2H-benzimidazol-2-one]",14 nM
